#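 1) Cells in 96-well plates. 2) Compound, 48 h, 5 concentrations. 3) Linear interpolation between surrounding doses. 4) Unreached endpoint = highest concentration. Here, GI50 denotes the concentration required for 50% inhibition of growth. TGI: total growth inhibition.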
# Assays:
# Assay in all cases: inhibition of tumour cell growth, NCI panel, 48 h
# [1] = test system: 786-0 renal
# [2] = test system: A498 renal
# [3] = test system: A549 NSCLC
# [4] = test system: ACHN renal
# [5] = test system: BT-549 breast
# [6] = test system: CAKI-1 renal
# [7] = test system: CCRF-CEM leukemia
# [8] = test system: COLO 205 colon
# [9] = test system: DU-145 prostate
# [10] = test system: EKVX NSCLC
# [11] = test system: HCC-2998 colon
# [12] = test system: HCT-116 colon
# [13] = test system: HCT-15 colon
# [14] = test system: HOP-62 NSCLC
# [15] = test system: HS 578T breast
# [16] = test system: HT29 colon
# [17] = test system: IGROV1 ovarian
# [18] = test system: K-562 leukemia
# [19] = test system: KM12 colon
# [20] = test system: LOX IMVI melanoma
# [21] = test system: M14 melanoma
# [22] = test system: MALME-3M melanoma
# [23] = test system: MCF7 breast
# [24] = test system: MDA-MB-231 breast
# [25] = test system: MDA-MB-435
# [26] = test system: MOLT-4 leukemia
# [27] = test system: NCI-H226 lung
# [28] = test system: NCI-H23 lung
# [29] = test system: NCI-H460 lung
# [30] = test system: NCI-H522 lung
# [31] = test system: NCI/ADR-RES ovarian
# [32] = test system: OVCAR-3 ovarian
# [33] = test system: OVCAR-4 ovarian
# [34] = test system: OVCAR-5 ovarian
# [35] = test system: OVCAR-8 ovarian
# [36] = test system: PC-3 prostate
# [37] = test system: RPMI-8226 leukemia
# [38] = test system: RXF 393 renal
# [39] = test system: SF-268 CNS
# [40] = test system: SF-295 CNS
# [41] = test system: SF-539 CNS
# [42] = test system: SK-MEL-2 melanoma
# [43] = test system: SK-MEL-28 melanoma
# [44] = test system: SK-MEL-5 melanoma
# [45] = test system: SK-OV-3 ovarian
# [46] = test system: SN12C renal
# [47] = test system: SNB-19 CNS
# [48] = test system: SNB-75 CNS
# [49] = test system: SR leukemia
# [50] = test system: SW-620 colon
# [51] = test system: T-47D breast
# [52] = test system: TK-10 renal
# [53] = test system: U251 CNS
# [54] = test system: UACC-257 melanoma
# [55] = test system: UACC-62 melanoma
# [56] = test system: UO-31 renal
structure (smiles),measurement,setting,value
COc1ccc(OC)c(/C=C(/C)[N+](=O)[O-])c1,GI50,[1],1.94 µM
same,TGI,[1],3.48 µM
same,GI50,[2],8.24 µM
same,TGI,[2],20.9 µM
same,GI50,[3],4.54 µM
same,TGI,[3],17.5 µM
same,GI50,[4],1.77 µM
same,TGI,[4],3.29 µM
same,GI50,[5],5.4 µM
same,TGI,[5],18.5 µM
same,GI50,[6],1.29 µM
same,TGI,[6],2.77 µM
same,GI50,[7],2.66 µM
same,TGI,[7],> 100 µM
same,GI50,[8],1.92 µM
same,TGI,[8],3.63 µM
same,GI50,[9],1.64 µM
same,TGI,[9],3.16 µM
same,GI50,[10],2.76 µM
same,TGI,[10],11.5 µM
same,GI50,[11],1.84 µM
same,TGI,[11],3.41 µM
same,GI50,[12],1.88 µM
same,TGI,[12],3.54 µM
same,GI50,[13],1.74 µM
same,TGI,[13],3.68 µM
same,GI50,[14],2.31 µM
same,TGI,[14],4.86 µM
same,GI50,[15],3.47 µM
same,TGI,[15],22.9 µM
same,GI50,[16],2.56 µM
same,TGI,[16],5.2 µM
same,GI50,[17],2.97 µM
same,TGI,[17],8.39 µM
same,GI50,[18],2.57 µM
same,TGI,[18],> 100 µM
same,GI50,[19],2.28 µM
same,TGI,[19],5.94 µM
same,GI50,[20],1.34 µM
same,TGI,[20],3.06 µM
same,GI50,[21],2.14 µM
same,TGI,[21],4.24 µM
same,GI50,[22],1.81 µM
same,TGI,[22],3.61 µM
same,GI50,[23],0.832 µM
same,TGI,[23],2.21 µM
same,GI50,[24],2.71 µM
same,TGI,[24],7.45 µM
same,GI50,[25],2.29 µM
same,TGI,[25],6.8 µM
same,GI50,[26],3.32 µM
same,TGI,[26],> 100 µM
same,GI50,[27],13.8 µM
same,TGI,[27],27.9 µM
same,GI50,[28],1.83 µM
same,TGI,[28],4.52 µM
same,GI50,[29],3.41 µM
same,TGI,[29],12.7 µM
same,GI50,[30],1.93 µM
same,TGI,[30],3.64 µM
same,GI50,[31],3.22 µM
same,TGI,[31],11.5 µM
same,GI50,[32],1.81 µM
same,TGI,[32],3.27 µM
same,GI50,[33],1.98 µM
same,TGI,[33],3.5 µM
same,GI50,[34],3.13 µM
same,TGI,[34],10.7 µM
same,GI50,[35],2.13 µM
same,TGI,[35],4.91 µM
same,GI50,[36],2.4 µM
same,TGI,[36],5.63 µM
same,GI50,[37],0.603 µM
same,TGI,[37],3.64 µM
same,GI50,[38],1.72 µM
same,TGI,[38],3.18 µM
same,GI50,[39],2.12 µM
same,TGI,[39],5.22 µM
same,GI50,[40],11.2 µM
same,TGI,[40],24.8 µM
same,GI50,[41],2.29 µM
same,TGI,[41],5.04 µM
same,GI50,[42],2.16 µM
same,TGI,[42],4.41 µM
same,GI50,[43],2.22 µM
same,TGI,[43],4.73 µM
same,GI50,[44],3.47 µM
same,TGI,[44],13 µM
same,GI50,[45],6.41 µM
same,TGI,[45],19 µM
same,GI50,[46],2.17 µM
same,TGI,[46],5.02 µM
same,GI50,[47],9.52 µM
same,TGI,[47],23.3 µM
same,GI50,[48],4.73 µM
same,TGI,[48],16 µM
same,GI50,[49],0.316 µM
same,TGI,[49],> 100 µM
same,GI50,[50],1.79 µM
same,TGI,[50],3.78 µM
same,GI50,[51],1.16 µM
same,TGI,[51],2.87 µM
same,GI50,[52],1.96 µM
same,TGI,[52],3.47 µM
same,GI50,[53],1.68 µM
same,TGI,[53],3.18 µM
same,GI50,[54],1.69 µM
same,TGI,[54],3.22 µM
same,GI50,[55],2.06 µM
same,TGI,[55],4.54 µM
same,GI50,[56],1.42 µM
same,TGI,[56],2.8 µM

# Reference: PubChem BioAssay (NCI)
